Data reported in patent EP4219453A1 (Sichuan Kelun-Biotech Biopharmaceutical Co., Ltd., priority 2020, dated 2022).
Values joined by “and” are separate entries in the source; they are usually repeats but may differ in a detail not shown here. Identical values can stand only once. Like-named read-outs stand apart in the source and are kept apart here.

Experiment: Pharmacokinetics (PK) study in Balb/c mice
Assay type: in vivo
Conditions: female Balb/c mice; for F: PO 10 mg/kg compared with IV 1 mg/kg
Protocol: Test Example 6: Pharmacokinetics (PK) study in Balb/c mice
The example compounds were administered to female Balb/c mice via intravenous injection (IV) and gastric perfusion (PO), respectively, and their pharmacokinetic properties were investigated. The administered doses for IV and PO were 1 mg/kg and 10 mg/kg, respectively. The solvent for IV was 5% DMSO + 5% Solutol (15-hydroxystearic acid polyethylene glycol ester) + 90% normal saline, the solvent for PO was 0.5% MC ([…] methylcellulose). Whole blood samples were collected at various time points after IV and PO administration, and subjected to EDTA-K2 anticoagulation before test.
Whole blood samples were processed by precipitating proteins and then subjected to LC-MS/MS analysis. The pharmacokinetic parameters were calculated by the non-compartmental model using WinNonlin 6.3 software, and the results were shown in Table 6 below. Table 6. Pharmacokinetic parameters of compounds in whole blood in mice

[1] = PO, 10 mg/kg, whole blood, listed as Example VI
[2] = mouse, IV, 1 mg/kg, whole blood
[3] = mouse, IV, 1 mg/kg, whole blood, read-out: Cmax
[4] = mouse, PO, 10 mg/kg, whole blood
[5] = mouse, PO, 10 mg/kg, whole blood, read-out: Cmax

Row | SMILES | AUClast (IV, 1 mg/kg, whole blood) | Cl (IV, 1 mg/kg, whole blood) | Cmax (IV, 1 mg/kg, whole blood) | F | F (listed as Example VI) | AUClast (PO, 10 mg/kg, whole blood) | Cmax (PO, 10 mg/kg, whole blood) | T1/2 (PO, 10 mg/kg, whole blood) | AUClast [1] | Cmax [1] | T1/2 [1] | AUC(0-t) [2] | clearance [2] | Cmax [3] | AUC(0-t) [4] | half-life [4] | Cmax [5]
1 | Cc1cccc(-n2nc3c(c2-c2ccn4ncc(C(N)=O)c4c2)CCC3)n1 [Example 6, 5-[2-(6-methylpyridin-2-yl)-2,4,5,6-tetrahydrocyclopenteno[c]pyrazol-3-yl]pyrazolo[1,5-a]pyridine-3-carboxamide] | 578 ng·h/mL and 578 ± 4 ng·h/mL | 28.4 mL/min/kg and 28.4 ± 0.3 mL/min/kg | 1163 ng/mL and 1163 ± 58 ng/mL | 61.4±9.5% | 61.4% | 3586 ± 563 ng·h/mL | 7440 ± 226 ng/mL | 27.6 ± 11.4 min | 3586 ng·h/mL | 7440 ng/mL | 27.6 min | – | – | – | – | – | –
2 | CNc1cc(-c2ccn3ncc(C(N)=O)c3c2)n(-c2cccc(C)n2)n1 [Example 8, 5-(3-(methylamino)-1-(6-methylpyridin-2-yl)-1H-pyrazol-5-yl)pyrazolo[1,5-a]pyridine-3-carboxamide] | – | – | – | 98.1% and 98.1±15.0% | – | – | – | 108 ± 21 min | – | – | – | 458 ng·h/mL | 35 mL/min/kg | 917 ng/mL | 4360 ng·h/mL | 108 min | 6270 ng/mL
3 | Cc1cccc(-n2nccc2-c2ccn3ncc(C(N)=O)c3c2)n1 [Example 12, 5-(1-(6-methylpyridin-2-yl)-1H-pyrazol-5-yl)pyrazolo[1,5-a]pyridine-3-carboxamide] | – | – | – | 52.1% and 52.1±2.6% | – | – | – | 31.2 ± 10.8 min | – | – | – | 572 ng·h/mL | 29.3 mL/min/kg | 862 ng/mL | 3040 ng·h/mL | 31.2 min | 5920 ng/mL
